# Assay results published in paper PMC3325374 (Journal of Medicinal Chemistry, 2012).
# System: MDR1-MDCK cell monolayers
# Assay: MDR1-MDCK monolayer permeability assay
# Type: in vitro ADME
# Conditions: judged from MDR1-MDCK efflux ratio
smiles,measurement,value
N#CCNC(=O)[C@H](Cc1c[nH]cn1)NC(=O)OCc1ccccc1 [Compound 10],P-gp mediated efflux (in words),subject to P-gp mediated efflux
